“And” between values parts separate entries of the source, which are not always exact repeats. Identical values can stand only once. Inconclusive results and toxic doses are left out. Numbered stars: 1 amine (or outer) side, 2 acyl side, 3 side chain; on linkers, the order of the positions; unused ones are H or OH. Bridge positions count the residues as written; N and C are the ends. Square brackets hold non-standard residues; d marks the D form. Peptide text beside a SMILES is read from it. I, II: the chains in the order shown. Actinocin(1to9) = Cc1c2oc3c(C)ccc(C(=O)[*:2])c3nc-2c(C(=O)[*:1])c(N)c1=O; NMeV = CN[CH](C(=O)O)C(C)C; Aze = O=C(O)[CH]1CCN1; Sar = CNCC(=O)O
System: BDF1 mice, B16 melanoma ip, median survival T/C
Assay: NCI In Vivo Anticancer Drug Screen. Data for tumor model B16 Melanoma (intraperitoneal) in B6D2F1 (BDF1) mice
Conditions: endpoint: median survival time, higher = longer survival
Method: The antitumor activity of compounds was measured in mice bearing transplantable tumors. Survival or tumor size were measured and the results are expressed as the measurement made in the treated group (T) divided by the measurement made in the vehicle treated control group (C). The tumor model used in this assay is B16 Melanoma (intraperitoneal) in B6D2F1 (BDF1) mice

[1] = dose: 100.0 mg/kg/injection, schedule: Q01DX009 (ip), vehicle: Klucel (hydroxypropylcellulose) (HPC)
[2] = dose: 100.0 mg/kg/injection, schedule: Q04DX003 (ip), vehicle: Klucel (hydroxypropylcellulose) (HPC)
[3] = dose: 200.0 mg/kg/injection, schedule: Q01DX009 (ip), vehicle: Klucel (hydroxypropylcellulose) (HPC)
[4] = dose: 200.0 mg/kg/injection, schedule: Q04DX003 (ip), vehicle: Klucel (hydroxypropylcellulose) (HPC)
[5] = dose: 400.0 mg/kg/injection, schedule: Q01DX009 (ip), vehicle: Klucel (hydroxypropylcellulose) (HPC)
[6] = dose: 25.0 mg/kg/injection, schedule: Q01DX009 (ip), vehicle: saline with Tween-80
[7] = dose: 50.0 mg/kg/injection, schedule: Q01DX009 (ip), vehicle: saline with Tween-80
[8] = dose: 100.0 mg/kg/injection, schedule: Q01DX009 (ip), vehicle: saline with Tween-80
[9] = dose: 200.0 mg/kg/injection, schedule: Q01DX009 (ip), vehicle: saline with Tween-80
[10] = dose: 12.5 mg/kg/injection, schedule: Q01DX009 (ip), vehicle: saline with Tween-80
[11] = dose: 25.0 mg/kg/injection, schedule: Q01DX009 (ip), vehicle: Klucel (hydroxypropylcellulose) (HPC)
[12] = dose: 50.0 mg/kg/injection, schedule: Q01DX009 (ip), vehicle: Klucel (hydroxypropylcellulose) (HPC)
[13] = dose: 12.5 mg/kg/injection, schedule: Q01DX009 (ip), vehicle: Klucel (hydroxypropylcellulose) (HPC)

Compound: COc1cccc2c1C(=O)c1c(O)c3c(c(O)c1C2=O)CC(O)(/C(C)=N/NC(=O)CCCCC(=O)N/N=C(\C)C1(O)Cc2c(O)c4c(c(O)c2C(OC2CC(N)C(O)C(C)O2)C1)C(=O)c1c(OC)cccc1C4=O)CC3OC1CC(N)C(O)C(C)O1 (stereo unspecified)
- T/C (dose: 0.38 mg/kg/injection, schedule: Q01DX009 (ip), vehicle: water): 114 % of control
- T/C (dose: 1.5 mg/kg/injection, schedule: Q01DX009 (ip), vehicle: water): 177 % of control
- T/C (dose: 3.0 mg/kg/injection, schedule: Q01DX009 (ip), vehicle: water): 295 % of control
- T/C (dose: 6.0 mg/kg/injection, schedule: Q01DX009 (ip), vehicle: water): 208 % of control

Compound: COc1ccc(NC(=O)Oc2cc(C)cc(C)c2)cc1
- T/C [1]: 96 % of control
- T/C [2]: 112 % of control
- T/C [3]: 96 % of control
- T/C [4]: 106 % of control
- T/C [5]: 89 % of control
- T/C (dose: 400.0 mg/kg/injection, schedule: Q04DX003 (ip), vehicle: Klucel (hydroxypropylcellulose) (HPC)): 112 % of control

Compound: CC(CC=O)CCCC(C)(C)O (stereo unspecified)
- T/C [1]: 101 % of control
- T/C [3]: 97 % of control

Compound: Cc1c2oc3c(C)ccc(C(=O)NC4C(=O)NC(C(C)C)C(=O)N5CCCC5C(=O)N(C)CC(=O)N(C)C(C(C)C)C(=O)OC4C)c3nc-2c(C(=O)NC2C(=O)NC(C(C)C)C(=O)N3CCC3C(=O)N(C)CC(=O)N(C)C(C(C)C)C(=O)OC2C)c(N)c1=O (stereo unspecified) (I: TV[Aze][Sar][NMeV] / II: TVP[Sar][NMeV]; ester I:1-I:C, II:1-II:C; linker I:N-II:N via Actinocin(1to9); configuration not given here)
- T/C (dose: 0.23 mg/kg/injection, schedule: Q01DX009 (ip), vehicle: saline + alcohol): 172 % of control
- T/C (dose: 0.3 mg/kg/injection, schedule: Q04DX003 (ip), vehicle: saline + alcohol): 163 % of control
- T/C (dose: 19.4 micrograms/kg/injection, schedule: Q01DX009 (ip), vehicle: saline + alcohol): 107 % of control
- T/C (dose: 37.0 micrograms/kg/injection, schedule: Q01DX009 (ip), vehicle: saline + alcohol): 182 % of control
- T/C (dose: 75.0 micrograms/kg/injection, schedule: Q01DX009 (ip), vehicle: saline + alcohol): 156 % of control and 190 % of control
- T/C (dose: 100.0 micrograms/kg/injection, schedule: Q01DX009 (ip), vehicle: saline + alcohol): 151 % of control
- T/C (dose: 150.0 micrograms/kg/injection, schedule: Q01DX009 (ip), vehicle: saline + alcohol): 159 % of control
- T/C (dose: 250.0 micrograms/kg/injection, schedule: Q01DX009 (ip), vehicle: saline + alcohol): 153 % of control

Compound: CCCSc1ccccc1N1CCN(CC(COC)OC)CC1 (stereo unspecified)
- T/C (dose: 12.5 mg/kg/injection, schedule: Q01DX009 (ip), vehicle: saline): 101 % of control
- T/C (dose: 25.0 mg/kg/injection, schedule: Q01DX009 (ip), vehicle: saline): 100 % of control
- T/C (dose: 50.0 mg/kg/injection, schedule: Q01DX009 (ip), vehicle: saline): 96 % of control

Compound: CC1C=NNC1=O (stereo unspecified)
- T/C [6]: 90 % of control
- T/C [7]: 90 % of control
- T/C [8]: 95 % of control
- T/C (dose: 100.0 mg/kg/injection, schedule: Q04DX003 (ip), vehicle: other): 105 % of control
- T/C (dose: 125.0 mg/kg/injection, schedule: Q01DX009 (ip), vehicle: other): 105 % of control
- T/C (dose: 125.0 mg/kg/injection, schedule: Q04DX003 (ip), vehicle: other): 100 % of control
- T/C [9]: 90 % of control
- T/C (dose: 200.0 mg/kg/injection, schedule: Q04DX003 (ip), vehicle: other): 95 % of control
- T/C (dose: 250.0 mg/kg/injection, schedule: Q01DX009 (ip), vehicle: other): 100 % of control
- T/C (dose: 250.0 mg/kg/injection, schedule: Q04DX003 (ip), vehicle: other): 100 % of control
- T/C (dose: 266.0 mg/kg/injection, schedule: Q04DX003 (ip), vehicle: saline with Tween-80): 197 % of control
- T/C (dose: 400.0 mg/kg/injection, schedule: Q01DX009 (ip), vehicle: saline with Tween-80): 116 % of control
- T/C (dose: 400.0 mg/kg/injection, schedule: Q04DX003 (ip), vehicle: other): 92 % of control
- T/C (dose: 400.0 mg/kg/injection, schedule: Q04DX003 (ip), vehicle: saline with Tween-80): 200 % of control
- T/C (dose: 500.0 mg/kg/injection, schedule: Q01DX009 (ip), vehicle: other): 111 % of control
- T/C (dose: 500.0 mg/kg/injection, schedule: Q04DX003 (ip), vehicle: other): 102 % of control
- T/C (dose: 600.0 mg/kg/injection, schedule: Q04DX003 (ip), vehicle: saline with Tween-80): 183 % of control

Compound: CC(C)C(Br)C(=O)NCC(=O)O (stereo unspecified)
- T/C [10]: 101 % of control
- T/C [6]: 95 % of control
- T/C [7]: 102 % of control

Compound: CC[C@H]1CN2CCc3cc(OC)c(OC)cc3[C@@H]2C[C@@H]1C[C@H]1NCCc2c1[nH]c1ccc(O)cc21
- T/C (dose: 0.25 mg/kg/injection, schedule: Q01DX009 (ip), vehicle: Klucel (hydroxypropylcellulose) (HPC)): 111 % of control
- T/C (dose: 0.5 mg/kg/injection, schedule: Q01DX009 (ip), vehicle: Klucel (hydroxypropylcellulose) (HPC)): 114 % of control
- T/C (dose: 1.0 mg/kg/injection, schedule: Q01DX009 (ip), vehicle: Klucel (hydroxypropylcellulose) (HPC)): 123 % of control

Compound: CC(CN(C)C)C(=O)c1ccccc1 (stereo unspecified)
- T/C [11]: 106 % of control
- T/C [12]: 90 % of control
- T/C [1]: 96 % of control

Compound: COCCN1CCC(C)(CO)C1 (stereo unspecified)
- T/C (dose: 100.0 mg/kg/injection, schedule: Q01DX009 (ip), vehicle: saline): 106 % of control
- T/C (dose: 200.0 mg/kg/injection, schedule: Q01DX009 (ip), vehicle: saline): 100 % of control
- T/C (dose: 400.0 mg/kg/injection, schedule: Q01DX009 (ip), vehicle: saline): 93 % of control

Compound: CCC1(O)CC(OC2CC(N(C)C)C(OC3CC4OC5CC(=O)C(C)OC5OC4C(C)O3)C(C)O2)c2c(cc3c(c2O)C(=O)c2c(O)ccc(O)c2C3=O)C1C(=O)OC (stereo unspecified)
- T/C (dose: 0.75 mg/kg/injection, schedule: Q01DX009 (ip), vehicle: saline): 88 % of control
- T/C (dose: 0.75 mg/kg/injection, schedule: Q04DX003 (ip), vehicle: saline): 97 % of control
- T/C (dose: 1.5 mg/kg/injection, schedule: Q01DX009 (ip), vehicle: saline): 105 % of control
- T/C (dose: 1.5 mg/kg/injection, schedule: Q04DX003 (ip), vehicle: saline): 88 % of control
- T/C (dose: 3.0 mg/kg/injection, schedule: Q04DX003 (ip), vehicle: saline): 97 % of control

Compound: O=C(O)c1cccnc1
- T/C [13]: 112 % of control
- T/C [11]: 105 % of control
- T/C [12]: 97 % of control
- T/C [1]: 100 % of control

Compound: CCC(=O)C(CC)c1ccc(OC)cc1OC (stereo unspecified)
- T/C [1]: 96 % of control
- T/C [3]: 103 % of control
- T/C [5]: 100 % of control

Compound: CCCCCCCCOc1ccc(C(=O)c2ccccc2)c(O)c1
- T/C (dose: 6.0 mg/kg/injection, schedule: Q01DX009 (ip), vehicle: Klucel (hydroxypropylcellulose) (HPC)): 92 % of control
- T/C [2]: 91 % of control
- T/C [4]: 93 % of control

Compound: C=CC1CN2CCC1CC2C(O)c1ccnc2ccc(OC)cc12 (stereo unspecified) (tested in a mixture with another compound)
- T/C [7]: 107 % of control
- T/C [8]: 107 % of control
- T/C [9]: 101 % of control

Compound: N#CSCc1ccccc1Cl
- T/C (dose: 1.56 mg/kg/injection, schedule: Q04DX003 (ip), vehicle: saline): 89 % of control
- T/C (dose: 3.13 mg/kg/injection, schedule: Q01DX009 (ip), vehicle: saline with Tween-80): 105 % of control
- T/C (dose: 3.13 mg/kg/injection, schedule: Q04DX003 (ip), vehicle: saline): 89 % of control
- T/C (dose: 6.25 mg/kg/injection, schedule: Q01DX009 (ip), vehicle: saline with Tween-80): 105 % of control
- T/C (dose: 6.25 mg/kg/injection, schedule: Q04DX003 (ip), vehicle: saline with Tween-80): 88 % of control
- T/C (dose: 6.25 mg/kg/injection, schedule: Q04DX003 (ip), vehicle: saline): 86 % of control
- T/C [10]: 114 % of control

Compound: O=[N+]([O-])CC1(O)CCCCC1
- T/C [13]: 102 % of control
- T/C [11]: 94 % of control

Compound: N#CCN1CCCN(CC#N)C1
- T/C (dose: 75.0 mg/kg/injection, schedule: Q01DX009 (ip), vehicle: Klucel (hydroxypropylcellulose) (HPC)): 96 % of control

Compound: c1cn[nH]c1
- T/C [6]: 97 % of control
- T/C [7]: 96 % of control
- T/C [8]: 91 % of control

Compound: Cc1ccc(NC(=O)c2ccc(C(=O)Nc3ccc(C)cc3)cc2)cc1
- T/C [10]: 117 % of control
- T/C [6]: 93 % of control
- T/C [7]: 100 % of control
